Test results from patent US20200247846A1, “INHIBITION OF OXIDATIVE STRESS, GLYCATION, AND PROTEIN CROSSLINKING” (THE REGENTS OF THE UNIVERSITY OF COLORADO, A BODY CORPORATE, priority 2017, published 2020).

How the values were obtained:
[1] = Stability of GTG in buffers, UPLC-MS MRM analysis; type: physicochemical; conditions: for stability: up to 48 h
Description: All chromatographic analyses were carried out in a Waters Acquity UPLC system connected to a Sciex 4500 QTrap (Redwood City, Calif.). Mass spectrometric analyses were carried out in the multiple reaction monitoring (MRM) mode. Chromatographic separations were carried out in an ACQUITY BEH C18 peptide column (100*2.1 mm, 1.7 μm; Waters) connected to a guard column using a flow rate of 0.5 ml/min. Water (solvent A) and acetonitrile (solvent B) were used as eluents. To both solvents, 0.1% heptafluorobutyric acid (v/v) was added. Analyses were performed at a column temperature of 40° C. using gradient elution: 5% B (0-0.25 min) to 20% B (2 min) to 50% B (3 min) to 100% B (3.5-5 min). The column was equilibrated at 5% B for 1 min prior to the next analysis. Detection of the analytes was achieved by using full scan mode for the identification of metabolites in preparative HPLC fraction and multiple reaction monitoring for the quantitation in stability experiments. The ion source was run under the following conditions: temperature, 550° C.; ion spray voltage, 4.5 kV; curtain gas, 45 ml/min; nebulizer gas, 60 ml/min; heating gas, 60 ml/min.
To test the stability, GTG was incubated under various conditions. The following buffers were used: 0.1 M phosphate buffer pH 5, 0.1 M phosphate buffer pH 7, 0.1 M phosphate buffer pH 9 and 0.1% formic acid. 10 μM solutions of […] in each buffer were stored at 4° C., 25° C. or 37° C. for up to 48 h, respectively. Sample aliquots were directly injected to ULPC-MS for MRM analysis. For the identification of degradation products sample aliquots were analyzed using full scan mode.

[2] = tested on: αB-Crystallin; experiment: αB-Crystallin incubated with methylglyoxal with or without GTG: covalent crosslinking and AGE levels; type: biochemical; conditions: 250 μM GTG + 250 μM MGO
Description: Legend: 1. αB-crystallin control, 2. αB-crystallin+250 μM GTG, 3. αB-crystallin+250 μM MGO, 4. αB-crystallin+250 μM GTG+250 μM MGO. The bar graphs are means±SD of triplicate measurements. ***p<0.0005. […] Lanes: 1. MW marker, 2. αB-crystallin standard, 3. αB-crystallin blank, 4. αB-crystallin+250 μM GTG, 5. αB-crystallin+250 μM MGO, 5. αB-crystallin+250 μM GTG and 250 μM MGO.
To test the efficacy of GTG in the inhibition of AGE production, αB-Crystallin was incubated with methylglyoxal in the presence or absence of GTG and analyzed for covalent crosslinking and AGE levels.

[3] = tested on: human lens cells (FHL 124); experiment: FHL 124 cells: levels of GTG metabolites and α-dicarbonyls; type: cell-based
Description: FIG. 6A depicts the scheme of dehydroascorbate (DHA) degradation and formation of reactive α-dicarbonyls and AGEs. […] The bar graphs are means±SD of triplicate measurements. **p<0.005, ***p<0.0005.
Next, human lens cells (FHL 124) were incubated with dehydroascorbic acid in the presence or absence of GTG and analyzed for levels of GTG and its metabolites as well as α-dicarbonyls. […] FHL124 cells were pretreated with GTG before either DHA or MGO was added.

[4] = tested on: diabetic mice; experiment: AGE levels in lenses and retinas of STZ-diabetic mice by UPLC-MS/MS; type: in vivo; conditions: 1 nmole/g body weight i.p. once every two days, 8 weeks; vs untreated diabetic controls
Description: The bar graphs are the means±SD of at least 8 measurements. *p<0.05, **p<0.005.
GTG was also tested in diabetic mice. Diabetes was induced by repeated STZ injections. GTG (1 nmole/g body weight) was injected intraperitoneally once every two days. After 8 weeks, lenses and retinas were harvested and analyzed for AGE levels by UPLC-MS/MS.

[5] = tested on: Mouse lenses; experiment: Mouse lens stiffness (axial and equatorial strain under load); conditions: 1.5 mM GTG, 48 h, 37° C.; load of 2,700 mg
Description: Mouse lenses (6 months old) were incubated with 1.5 mM GTG for 48 h at 37° C. in serum free MEM in a CO2 incubator. Lens stiffness was measured using a set up as described previously (Cheng C, et al., Journal of visualized experiments: JoVE. 2016, (111):10.3791/ 53986). Lens stiffness was measured using a load of 2,700 mg. Axial and equatorial strains were calculated as previously described (Chen, JOVE 2016, supra).

## CCOC(=O)CNC(=O)C(CSSCCNC(=N)N)NC(=O)CCC(N)C(=O)OCC (stereo not shown) [GTG, glutathione diethyl ester thioethylguanidine disulfide]
[1]; 0.1% formic acid, 10 μM, 4° C., 25° C. or 37° C.
  stability: stable at all temperatures
[1]; 0.1 M phosphate buffer pH 5, 4° C.
  stability: stable
[1]; 0.1 M phosphate buffer pH 5, 25° C.
  stability: stable
[1]; 0.1 M phosphate buffer pH 5, 37° C.
  stability: slightly degraded
[1]; 0.1 M phosphate buffer pH 7, 4° C., 25° C. or 37° C.
  stability: degraded at all temperatures
[1]; 0.1 M phosphate buffer pH 9, 4° C., 25° C. or 37° C.
  stability: degraded at all temperatures
[1]; all buffer and temperature conditions of the stability test
  reduction of the disulfide bond during the incubation: not observed
[2]; SDS-PAGE
  covalent crosslinking in αB-crystallin incubated with methylglyoxal: significantly reduced
[2]; after acid hydrolysis
  AGE formation (CEL levels) in αB-crystallin incubated with methylglyoxal: significantly reduced
[3]; 50 mM GTG for 2 h
  penetration of the plasma membrane of FHL124 cells: able to penetrate the plasma membrane
[3]; 50 mM GTG for 2 h, FHL124 cells
  intracellular conversion to glutathione and mercaptoethylguanidine: immediately reduced and hydrolyzed to glutathione and mercaptoethylguanidine
[3]; cells treated 24 h with dehydroascorbic acid, subsequent incubation with GTG
  reactive α-dicarbonyls derived from dehydroascorbic acid: significant reduction
[4]
  AGE levels in the lens: lower
  AGE levels in the retina: lower
[5]
  improvement of axial strain in comparison to control lenses: 23%
  improvement of equatorial strain in comparison to control lenses: 72%
